The text below walks through data of US6399298B1, “Ku70—related methods” (Sloan-Kettering Institute for Cancer Research, priority 1998, dated 2002).

The subject of data set [1] is cells derived from Ku80 knock-out mice. Kind of data set: Survival experiments with cells derived from Ku80 knock-out mice. It counts as cell-based. Conditions: Ku80 knock-out mouse cells, FIG. 12.
Data set [2] relates to cells derived from Ku70 knock-out mice. Kind of data set: Survival experiments with cells derived from Ku70 knock-out mice. It counts as cell-based. The following applies: Ku70 knock-out mouse cells, FIG. 12.
The subject of data set [3] is HeLa cells expressing antisense Ku70. Kind of data set: Cytotoxicity in stable HeLa cells expressing antisense Ku70 RNA (Tet-Off). Conditions: adriamycin 1 μg/ml; expression of Ku70 antisense RNA; FIG. 13. It counts as cell-based, human. The protocol:
Effect of (A) radiation, and (B) adriamycin on different cell types. O=HeLa controls cells; ▪=HeLa cells expressing antisense Ku70; ▴=HeLa cell expressing antisense Ku80.
Stable HeLa cells, containing human Ku70 cDNA or human Ku80 cDNA, in the antisense orientation, under the regulation of the Tet-Off™ expression system (Clonetech), were established. Upon induction of the expression system these cells should produce antisense Ku70 or Ku80 RNA, respectively. Experiments were performed showing (FIG. 13) that expression of either Ku70 or Ku80 antisense RNA increased the cytotoxic effect adriamycin by 3-5 fold at 1 μg/ml and that expression of Ku70 antisense RNA increased the cytotoxic effect of γ-radiation approximately 5 fold (at 6 Gy).

Data set [4] concerns HeLa cells expressing antisense Ku80. Kind of data set: Cytotoxicity in stable HeLa cells expressing antisense Ku80 RNA (Tet-Off). Conditions: adriamycin 1 μg/ml; expression of Ku80 antisense RNA; FIG. 13. The format is cell-based, human.

`COc1cccc2c1C(=O)c1c(O)c3c(c(O)c1C2=O)C[C@@](O)(C(=O)CO)C[C@@H]3O[C@H]1C[C@H](N)[C@H](O)[C@H](C)O1` [adriamycin]: the “sensitivity of cells to the agent (survival)” value in data set [1] and in data set [2] was “very sensitive” each time. The “increase of the cytotoxic effect of adriamycin” value in data set [3] and in data set [4] was 3-5 fold each time.
As to bleomycin, the “sensitivity of cells to the agent (survival)” value in data set [1] and in data set [2] was “very sensitive” in each case.
